# Literature values as cited in patent EP0086468A2, “Oral anti-diabetic preparation” (HOECHST UK LIMITED, priority 1982, dated 1983).
# Test system: plasma glucose
# Details: intravenous bolus injection, published data
compound,measurement,value
COc1ccc(Cl)cc1C(=O)NCCc1ccc(S(=O)(=O)NC(=O)NC2CCCCC2)cc1 [glibenclamide],"nadir in plasma glucose levels, time after injection",about 40 minutes
